Results as given in US6187585A, “Oligonucleotide inhibition of epidermal growth factor receptor expression” (Isis Pharmaceuticals, Inc., priority 1999, dated 2001).
Strand notation (5' to 3'): a small letter for the sugar, then the base; units joined by * are phosphorothioate-linked, units joined directly phosphodiester-linked; [ ] holds rarer units or linkages, { } end groups; capitals alone tell only the bases. d = 2'-deoxy (DNA)

Tests used:
[1] = tested on: EGFR tyrosine kinase; settings: cited from earlier work
[2] = tested on: A431 cells; settings: cited from earlier work
[3] = tested on: EGFR mRNA; assay: EGFR mRNA inhibition, Northern blot, SKOV3 human ovarian carcinoma cells; type: cell-based; settings: for % Inhibition of EGFR mRNA (10 kb band): 300 nM oligonucleotide, 15 μg/ml LIPOFECTIN, relative to untreated control, normalized to β-actin
[4] = tested on: EGFR mRNA; assay: EGFR mRNA inhibition, Northern blot, A549 human lung carcinoma cells; type: cell-based; settings: for % Inhibition of EGFR mRNA (10 kb band): 300 nM oligonucleotide, 15 μg/ml LIPOFECTIN, relative to untreated control, normalized to G3PDH
[5] = tested on: EGFR mRNA; assay: EGFR mRNA, Northern blot, both cell types together (A549 and SKOV3); type: cell-based, human; settings: 300 nM
Protocol: SKOV3 and A549 cells were grown in T-75 flasks until 65-75% confluent. The cells were washed once with serum-free OPTI-MEM® medium (Life Technologies, Inc., Grand Island, N.Y.) and 5 ml of the serum-free OPTI-MEM® containing 15 μg/ml of LIPOFECTIN® reagent (a 1:1 liposome formulation of the cationic lipid DOTMA and DOPE, Life Technologies, Inc.) was added. At that time, 300 nM of oligonucleotide was added and swirled vigorously. After a 4-5 hour incubation at 37° C., the solution was removed and fresh maintenance medium containing 10% fetal bovine serum was added. The cells were again incubated overnight at 37° in 5% CO2, after which the cells were assayed for EGFR MRNA expression or cell growth.
Total mRNA was extracted from the cells. For SKOV3 cells, cells were washed twice with PBS and 1-2 ml of RNAZOL B® (Tel-Test, Inc., Friendswood Tex.) was added. An incubation at 4° C. for 5-30 minutes was done and the cells were scraped into an Eppendorf tube. This solution was frozen at -80° C. for 20 minutes, thawed and chloroform (200 μl/ml) was added. The solution was centrifuged at 12,000×g for 15 minutes at 4° C. and the aqueous layer was transferred to a clean Eppendorf tube. An equal volume of isopropanol was added and incubated at room temperature for 15 minutes. Another centrifugation at 12,000×g for 15 minutes at 4° C. was done. The pellet was washed with 500 μl of 75% ethanol and centrifuged at 7500×g for 5 minutes at 4° C. As much of the supernatant as possible was removed and the pellet was resuspended in 30 μl of double distilled water. For A549 cells, total mRNA was extracted using a guanidinium/cesium chloride extraction protocol as described by Dean et al., J. Biol. Chem., 1994, 269, 16416. Ten μg of this mRNA was resolved on a 1.0% agarose gel containing 3.0% formaldehyde and transferred to a nylon membrane. […] The membrane was exposed to autoradiography film at -80° C. and the MRNA bands quantitated using a densitometer (Molecular Dynamics). Blots were stripped of radioactivity by boiling and then reprobed with a ^32 P-labeled control probe which hybridized either to G3PDH (Clontech Laboratories, Inc., Palo Alto Calif.) or β-actin (Ambion, Austin Tex.).
Some of the oligonucleotides in Table 1 were tested for their ability to inhibit EGFR mRNA expression in A549 human lung carcinoma cells and SKOV3 human ovarian carcinoma cells, both of which overexpress the EGFR. […] Total RNA was extracted and quantitated by Northern blot analysis, using PCR-generated EGFR cDNA probes. Bands were quantitated on a densitometer and normalized to control probe bands (G3PDH for the A549 cells and β-actin for the SKOV3 cells). […]

[6] = tested on: EGFR protein; assay: EGFR protein synthesis, metabolic labeling and immunoprecipitation, SKOV3 cells; type: cell-based, human; settings: 35S-methionine labeling, compared to untreated cells
Protocol: Human SKOV3 ovarian carcinoma cells were obtained from the American Type Culture Collection. They were grown in McCoy's 5A medium containing NaHCO3, 10% fetal bovine serum and antibiotics and routinely passaged. A549 human lung carcinoma cells were routinely passaged in DMEM medium supplemented with 10% fetal bovine serum.
SKOV3 cells were treated with the indicated oligonucleotides in serum-free, methionine-free OPTI-MEM® medium for 2.5 hours. The medium was then replaced with methionine-free OPTI-MEM® containing ^35 S-methionine (100 μCi/ml) and 2% dialyzed fetal bovine serum for 10 hours. Cell extracts were prepared as described by Kumar et al., Proc. Natl. Acad. Sci. USA, 1992, 89, 6599. Aliquots containing equal amounts of trichloroacetic acid-precipitable counts per minute were subjected to immunoprecipitation with anti-EGFR monoclonal antibody 528/rabbit anti-mouse IgG/protein A-Sepharose conjugate. Kumar et al., Proc. Natl. Acad. Sci. USA, 1992, 89, 6599 and Korutla et al., Carcinogenesis, 1995, 16, 1741. Lysates containing equal amounts of protein were also resolved on a 10% SDS-polyacrylamide gel and stained with Coomassie blue.
ISIS 10563, ISIS 12876 and ISIS 12877 were added to exponentially growing SKOV3 cells. Cells were metabolically labeled with ^35 S-methionine and newly synthesized EGFR protein was immunoprecipitated. […] Coomassie blue staining confirmed that proteins other than EGFR were not affected by treatment of cells with antisense oligonucleotides.

[7] = 300 nM, scrambled control, 10 kb band

Compound | % Inhibition of EGFR mRNA (10 kb band) [3] [%] | % Inhibition of EGFR mRNA (10 kb band) [4] | reduction of EGFR mRNA expression, ranking in words [5] | reduction of EGFR protein production / EGFR synthesis [6] | other results
COc1cc2ncnc(Nc3cccc(Br)c3)c2cc1OC [PD153035] |  |  |  |  | inhibition of EGFR tyrosine kinase activity [1]: inhibits EGFR tyrosine kinase activity; inhibition of the growth of A431 cells in nude mice [2]: can inhibit the growth of A431 cells in nude mice
ISIS 10561: TGTCGGCCCCACAGGCTCGG; phosphorothioate 2'-deoxy; coding region, Ullrich 1110-1129 (antisense dT*dG*dT*dC*dG*dG*dC*dC*dC*dC*dA*dC*dA*dG*dG*dC*dT*dC*dG*dG) | 45 | greater than 50% |  |  | % Inhibition of EGFR mRNA (10 kb band) ([4]; listed as 10561): 75%
ISIS 10563: CCCCAGCAGCTCCCATTGGG; phosphorothioate deoxyoligonucleotide; coding region, Ullrich 769-788 (antisense dC*dC*dC*dC*dA*dG*dC*dA*dG*dC*dT*dC*dC*dC*dA*dT*dT*dG*dG*dG) | 61 | 95% | greatest amount of reduction of EGFR mRNA expression in both cell types | 90-98% | 
ISIS 10565: CTCGGCTGACATTCCGGCAA; phosphorothioate 2'-deoxy; coding region, Ullrich 1761-1780 (antisense dC*dT*dC*dG*dG*dC*dT*dG*dA*dC*dA*dT*dT*dC*dC*dG*dG*dC*dA*dA) | 33 | 43% |  |  | 
ISIS 12139: GAGTTCGCGTCCTTTCTCCA; scrambled control; phosphorothioate (all phosphorothioate, sugars by position and methylation of C not given here) [reference compound] |  |  |  | 10% | increase in EGFR mRNA compared to untreated controls [3, 7]: 39%; increase in EGFR mRNA compared to untreated controls [4, 7]: 18%
ISIS 12875: CCCCAGCAGCTCCCAUUGGG; 2'-fluoro; phosphorothioate; coding region, Ullrich 769-788 (all phosphorothioate, sugars by position and methylation of C not given here; 2'-fluoro modification, further chemistry not fully specified) | 57 | 77% | slightly less potent |  | 
ISIS 12876: CCCCAGCAGCTCCCATTGGG; 5-methyl C; phosphorothioate; coding region, Ullrich 769-788 (all C 5-methyl, all phosphorothioate, sugars by position not given here) | 66 | 97% | greatest amount of reduction of EGFR mRNA expression in both cell types | 90-98% | 
ISIS 12877: CUCGGCTGACATTCCGGCAA; 2'-fluoro; phosphorothioate (all phosphorothioate, sugars by position and methylation of C not given here; 2'-fluoro modification, further chemistry not fully specified) | 61 | 93% | greatest amount of reduction of EGFR mRNA expression in both cell types | 90-98% | 
ISIS 12878: GAGGCGTTCTCCTUUCUCCA; 2'-O-propyl; phosphorothioate; coding region, Ullrich 2966-2985 (all phosphorothioate, sugars by position and methylation of C not given here; 2'-O-propyl modification, further chemistry not fully specified) | 22 | greater than 50% |  |  | % Inhibition of EGFR mRNA (10 kb band) ([4]; listed as 12878): 66%
